# Laboratory results taken from patent US20220259265A1, “Inhibitors and Use Thereof in Cancer Treatment” (The University of Sydney, priority 2019, published 2022).
# Ends that are not written are not given here. Peptide text beside a SMILES is read from it. * marks the point of attachment. 5TAMRA = CN(C)c1ccc2c(c1)Oc1cc(N(C)C)ccc1C21OC(=O)c2cc(C(=O)*)ccc21
# Assays:
# [1] = tested on: IGFBP-3-NONO complexes in HCC1806 cells; assay: Proximity ligation assay (PLA), HCC1806 cells; type: cell-based, human
# Description: (§1) PLA was performed using the Duolink Detection Kit (Olink Bioscience Uppsala, Sweden) as previously described (Lin M Z et al., Oncogene, 2014, 33, 85-96). Briefly, cells were grown on 8-mm glass coverslips to 50% confluency, treated, and prepared for microscopy by fixing, permeabilizing and blocking. Coverslips were incubated with primary antibody pairs (raised in different species) targeting the proteins under investigation overnight at 4° C. […]; NONO (as above) and […]; IGFBP-3 (as above), 1:100. This was followed by incubation with PLA probes MINUS and PLUS for 1 h at 37° C., probe ligation for 30 min at 37° C. and amplification over 100 min at 37° C. Interactions were detected as amplified far-red signals using a Leica TCS SP5 confocal microscope (Leica Microsystems, Wetzlar, Germany) and quantitated using Image J software.
# [2] = tested on: DNA end-joining activity in MDA-MB-468 cells; assay: DNA end-joining assay, nuclear extracts of treated MDA-MB-468 cells; type: cell-based, human
# Description: (§2) Nuclear extraction and end-joining assay was performed as previously described (Andrin C et al., J Blot Chem., 2004, 279, 25017-25023; Andrin C et al., Nucleus., 2012, 3, 384-395) with slight modifications. […] After isolation of nuclei by centrifugation through a buffer containing 300 mM sucrose, the washed nuclear pellet was extracted into high-salt buffer (20 mM Hepes, pH 7.5, 25% glycerol, 420 mM NaCl, 0.2 mM EDTA, 1.5 mM MgCl2) for 30 min on ice, and insoluble material was removed by centrifugation. The soluble nuclear extract was used in the end-joining assay. Restriction enzymes NheI and EcoRI (New England Biolabs, Ipswich, Mass., USA) were used to digest a EGFP-C1 plasmid (Clontech, Mountain View, Calif., USA) to generate a DNA fragment of 4 kb with non-homologous ends. The linearized plasmid was separated by 0.8% agarose gel electrophoresis, purified using a DNA gel extraction kit (Qiagen), and used as the substrate for end-joining assays. Nuclear extract (2 μg) was mixed with end-joining assay buffer (7.5 mM Tris pH 8.0, 0.2 mM CaCl2, 10 mM MgCl2, 50 mM KCl, 1.2 mM ATP and 0.5 mM DTT) and allowed to stand for 30 min at 22° C. Repair was initiated by adding 100 ng of prepared linearized DNA and incubated at 25° C. for 30 min, stopped by the addition of 0.5 M EDTA, 0.5% SDS and 10 mg/mL Proteinase K. DNA bands were separated on a 0.7% agarose gel, stained with SYBR Gold (Life Technologies), and visualized on a BioRad ChemiDoc imaging system.
# [3] = tested on: IGFBP-3-NONO complexes in MDA-MB-468 cells; assay: Proximity ligation assay (PLA), MDA-MB-468 cells; type: cell-based, human
# Description: as §1
# [4] = tested on: γH2AX (DNA double-strand breaks) in MDA-MB-468 cells; assay: γH2AX immunofluorescence, MDA-MB-468 cells; type: cell-based, human; details: olaparib 10 μM or veliparib 20 μM pre-treatment, etoposide 1 h (T0), 4 h recovery (T4)
# Description: (§3) The human basal-like triple negative breast cancer (TNBC) cell lines MDA-MB-468 and HCC1806 were obtained from ATCC, Manassas, Va. and maintained in RPMI 1640 medium containing 5% FBS and 10 μg/mL bovine insulin under standard conditions. Cryopreserved stocks were established within 1 month of receipt, and fresh cultures for use in experiments were established from these stocks every 2 to 3 months.
# (§4) Cells grown on 8-mm glass coverslips were washed three times with PBS, fixed with 4% paraformaldehyde for 15 min, permeabilized with 0.2% Triton X-100 for 5 min and blocked with 2% BSA for 1 h. Cells were then incubated with rabbit anti-phospho-histone γH2A.X (Ser139) (1:200; Cell Signaling Technology, #9718) overnight at 4° C., washed, and further incubated with anti-rabbit secondary antibody, tagged with Alexa Fluor 594 (Life Technologies, Carlsbad, Calif., USA). For controls, cells were treated with isotype-matched IgG from the same species. Slides were mounted using ProLong Gold Antifade Reagent (Life Technologies). […] Data were calculated from three replicate experiments.
# [5] = tested on: DNA end-joining activity in HCC1806 cells; assay: DNA end-joining assay, nuclear extracts of treated HCC1806 cells; type: cell-based, human
# Description: as §2, with “Repair was initiated by adding 100 ng of prepared linearized DNA and incubated at 25° C. for 30 min, stopped by the addition of 0.5 M EDTA, 0.5% SDS and 10 mg/mL Proteinase K. DNA bands were separated on a 0.7% agarose gel, stained with SYBR Gold (Life Technologies), and visualized on a BioRad ChemiDoc imaging system.” left out
# [6] = tested on: γH2AX (DNA double-strand breaks) in HCC1806 cells; assay: γH2AX immunofluorescence, HCC1806 cells; type: cell-based, human; details: olaparib 10 μM or veliparib 20 μM pre-treatment, etoposide 1 h (T0), 4 h recovery (T4)
# Description: as §3, §4
# [7] = tested on: HCC1806 breast cancer cells; assay: Nuclear uptake of 5-TAMRA-labelled peptide, confocal microscopy (fixed and live cell imaging); type: cell-based, human
# Description: The peptide was synthesised with the fluorescent dye 5-TAMRA (5-carboxytetramethyl-rhodamine) covalently bound at its amino-terminus. Since under some circumstances the fixation of cells prior to imaging may introduce artefacts, experiments were performed to detect the localisation of the peptide both with and without fixation of the cells. […] At the indicated time points, cells were washed three times with PBS, fixed with 4% paraformaldehyde for 15 min, washed three times and mounted on slides using ProLong Gold Antifade Reagent containing the nuclear stain DAPI (Life Technologies). Confocal fluorescence images were captured with a Leica TCS SP5 confocal laser scanning microscope (Leica Microsystems, Wetzlar, Germany). Live cell imaging (FIG. 8b): HCC1806 cells were plated in an 8-well chamber slide (Nunc Lab-Tek, Sigma Aldrich); 0.1 mg/mL Hoechst nuclear stain (Life Technologies) was added to the cells for 15 mins and imaged (0 min time point) using Leica TCS SP5 confocal microscope. […] Images were taken at the times indicated.
# [8] = target: T1, IGFBP-3 complexes with NONO (NONO/SFPQ) in MDA-MB-468 cells (Homo sapiens, UniProt Q15233); assay: Co-immunoprecipitation with IGFBP-3-Fab beads and western blotting, MDA-MB-468 cells; type: cell-based; details: 24 h preincubation with veliparib 20 μM or olaparib 10 μM prior to 20 μM etoposide
# T1 construct: endogenous in cells; host or cells: MDA-MB-468; HCC1806
# T1 sequence (Q15233 1-471): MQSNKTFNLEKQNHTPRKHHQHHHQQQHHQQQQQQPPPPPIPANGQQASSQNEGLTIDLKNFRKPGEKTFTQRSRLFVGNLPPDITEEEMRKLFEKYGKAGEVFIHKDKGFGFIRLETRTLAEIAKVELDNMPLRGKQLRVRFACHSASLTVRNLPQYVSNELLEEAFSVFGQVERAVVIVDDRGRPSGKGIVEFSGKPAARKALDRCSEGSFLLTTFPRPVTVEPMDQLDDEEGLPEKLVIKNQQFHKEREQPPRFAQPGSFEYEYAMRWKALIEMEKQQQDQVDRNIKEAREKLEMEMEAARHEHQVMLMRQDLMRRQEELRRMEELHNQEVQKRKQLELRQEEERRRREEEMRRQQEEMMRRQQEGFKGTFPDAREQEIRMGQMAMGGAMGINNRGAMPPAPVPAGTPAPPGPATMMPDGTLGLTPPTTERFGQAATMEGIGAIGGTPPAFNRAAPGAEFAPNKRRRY
# T1 sequence (P23246 1-707 partner): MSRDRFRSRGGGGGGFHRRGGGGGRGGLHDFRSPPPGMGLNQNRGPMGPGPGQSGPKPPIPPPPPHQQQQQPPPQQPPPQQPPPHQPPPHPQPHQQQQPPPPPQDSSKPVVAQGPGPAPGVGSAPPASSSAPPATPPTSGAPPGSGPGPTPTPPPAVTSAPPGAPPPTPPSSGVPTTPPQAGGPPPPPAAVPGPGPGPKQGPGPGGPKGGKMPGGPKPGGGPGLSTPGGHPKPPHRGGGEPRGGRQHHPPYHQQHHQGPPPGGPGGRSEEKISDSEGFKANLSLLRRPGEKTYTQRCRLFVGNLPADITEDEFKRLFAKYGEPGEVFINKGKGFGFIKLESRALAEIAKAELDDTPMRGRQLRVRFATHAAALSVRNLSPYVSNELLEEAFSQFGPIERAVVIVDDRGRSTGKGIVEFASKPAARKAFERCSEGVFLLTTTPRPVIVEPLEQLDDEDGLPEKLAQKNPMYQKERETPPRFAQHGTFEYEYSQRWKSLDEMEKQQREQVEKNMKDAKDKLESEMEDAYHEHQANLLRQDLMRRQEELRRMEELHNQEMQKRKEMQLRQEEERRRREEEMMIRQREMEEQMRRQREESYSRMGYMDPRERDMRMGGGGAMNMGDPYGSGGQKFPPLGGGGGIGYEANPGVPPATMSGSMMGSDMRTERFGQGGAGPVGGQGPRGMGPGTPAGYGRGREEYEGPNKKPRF
# Description: as §3
# [9] = tested on: HCC1806 breast cancer cells; assay: 14-day colony formation or clonogenic survival assay; type: cell-based, human; details: veliparib 5 μM
# Description: HCC1806 cells (500 cells/well) were plated in 6-well plates for 24 h prior to being treated with or without 5 μM of PARPi (veliparib) for a further 24 h. […] Colonies were washed with PBS and stained using 0.5% Crystal Violet (Sigma Aldrich) in 20% methanol for 30 min prior to rinsing with water. Colonies, defined as clusters of at least 30 cells, were imaged and counted with an AID vSpot Spectrum imager (AutoImmun Diagnostika GmbH, Strassberg, Germany).
# The 14-day colony formation or clonogenic survival assay measures the ability of cells to survive 2 days of chemotherapy-induced DNA damage, and form colonies of at least 30 cells over the next 12 days. […] The purpose was to find conditions under which the cells become more sensitive to this low dose of chemotherapy.
# [10] = tested on: γH2AX signal in MDA-MB-468 cells; assay: γH2AX response to etoposide after peptide incubation (blot), MDA-MB-468 cells; type: cell-based, human; details: 16 h incubation with peptide at 10 μM, 25 μM etoposide
# Description: (§5) An elevated γH2AX signal is indicative of sustained DNA damage (i.e. inhibition of DNA repair) compared to the control cells. Peptide #66 was also evaluated in the presence of PARP inhibitors, veliparib (ABT-888) and olaparib (Lynparza). In FIG. 5e and FIG. 5f, the γH2AX signal in the absence of peptide #66 is expressed as 100%, and bars represent the ratio of γH2AX signal in the presence of the peptide, to that in its absence.
# [11] = tested on: γH2AX signal in HCC1806 cells; assay: γH2AX response to etoposide after peptide incubation (blot), HCC1806 cells; type: cell-based, human; details: 16 h incubation with peptide at 10 μM, 25 μM etoposide
# Description: as §5
# [12] = 20 μM veliparib or 10 μM olaparib 24 h, then 20 μM etoposide 2 h
# [13] = 24 h preincubation with 20 μM veliparib, 2 h after 20 μM etoposide
compound,measurement,setting,value
COc1cc([C@@H]2c3cc4c(cc3[C@@H](O[C@@H]3O[C@@H]5CO[C@@H](C)O[C@H]5[C@H](O)[C@H]3O)[C@H]3COC(=O)[C@H]23)OCO4)cc(OC)c1O [etoposide],Time of peak interaction between IGFBP-3 and NONO (PLA),"[1]; 20 μM etoposide, 0 to 4 h",~2 h
same,Activity in direct DNA end-joining assay,"[2]; 20 μM etoposide 2 h, nuclear extracts (FIG. 4e)",increased activity
same,Time of peak interaction between IGFBP-3 and NONO (PLA),"[3]; 20 μM etoposide, 0 to 4 h",~2 h
O=C(c1cc(Cc2n[nH]c(=O)c3ccccc23)ccc1F)N1CCN(C(=O)C2CC2)CC1 [olaparib],Effect on loss of γH2AX signal over 4 h recovery (DSB repair),[4],significantly prevented the loss of γH2AX signal
same,Inhibition of end joining activity,[2]; [12],approximately 50%
same,Inhibition of end joining activity,[5]; [12],approximately 50%
same,Effect on loss of γH2AX signal over 4 h recovery (DSB repair),[6],significantly prevented the loss of γH2AX signal
CC(C)C[C@H](NC(=O)[C@H](Cc1c[nH]cn1)NC(=O)c1ccc2c(c1)C(=O)OC21c2ccc(N(C)C)cc2Oc2cc(N(C)C)ccc21)C(=O)N[C@@H](CCCCN)C(=O)N[C@@H](Cc1ccccc1)C(=O)N[C@@H](CC(C)C)C(=O)N[C@@H](CC(N)=O)C(=O)N[C@H](C(=O)N[C@@H](CC(C)C)C(=O)N[C@@H](CO)C(=O)N1CCC[C@H]1C(=O)N[C@@H](CCCNC(=N)N)C(=O)NCC(=O)O)C(C)C [peptide #66 labelled with 5-TAMRA] (5TAMRA-HLKFLNVLSPRG-OH),Time of peak colocalization of labelled peptide and nuclei,"[7]; fixed cell imaging, or 10 μM labelled peptide",30 min
same,Association of labelled peptide with cell nuclei,"[7]; live cell imaging, 2.5 μM or 10 μM labelled peptide","associated with cell nuclei at 40 and 60 min, and even more so after 90 min"
C[C@]1(c2nc3c(C(N)=O)cccc3[nH]2)CCCN1 [veliparib],Effect on IGFBP-3 complexes with NONO (immunoblotting after coIP),[8],abolished
same,Effect on loss of γH2AX signal over 4 h recovery (DSB repair),[4],significantly prevented the loss of γH2AX signal
same,Effect on increase in IGFBP-3-NONO complexes (PLA),[1]; [13],abolished
same,inhibition at 20 µM,"[2]; Homo sapiens, MDA-MB-468",~50%
same,inhibition at 20 µM,"[5]; Homo sapiens, HCC1806",~50%
same,Effect on increase in IGFBP-3-NONO complexes (PLA),[3]; [13],abolished
same,Effect on loss of γH2AX signal over 4 h recovery (DSB repair),[6],significantly prevented the loss of γH2AX signal
same,Inhibition of cell survival (colony formation),[9]; cells exposed to 100 nM etoposide,about one-third
same,Inhibition of cell survival (colony formation),[9]; in the absence of etoposide,about one-third
HLKFLNVLSPRG [Peptide #66],Nuclear uptake of peptide,"[7]; 5-TAMRA-labelled peptide, fixed and live cell imaging",rapid nuclear uptake
MEDTLNHLKFLN [compound 64],γH2AX signal (sustained DNA damage) compared to no peptide,[10],low γH2AX signal
same,γH2AX signal (sustained DNA damage) compared to no peptide,[11],low γH2AX signal
TLNHLKFLNVLS [compound 65],γH2AX signal (sustained DNA damage) compared to no peptide,[10],sustained γH2AX signal
same,γH2AX signal (sustained DNA damage) compared to no peptide,[11],sustained γH2AX signal
